The test system of the assay is P388 leukemia ip, CD2F1 mice, survival T/C. Description: NCI In Vivo Anticancer Drug Screen. Data for tumor model P388 Leukemia (intraperitoneal) in CD2F1 (CDF1) mice. The settings on record: endpoint: median survival time, higher = longer survival. An outline of the steps:
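Mice carrying the transplanted tumor received test compound or vehicle. Survival was recorded in each group, and the value is the treated-group measurement divided by that of the vehicle-treated control group.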

The mark [1] stands for this setting: dose: 60.0 mg/kg/injection, schedule: Q01DX005 (ip), vehicle: saline with Tween-80.
[2] abbreviates: dose: 120.0 mg/kg/injection, schedule: Q01DX005 (ip), vehicle: saline with Tween-80.
The mark [3] stands for this setting: dose: 240.0 mg/kg/injection, schedule: Q01DX005 (ip), vehicle: saline with Tween-80.
The mark [4] stands for this setting: dose: 12.5 mg/kg/injection, schedule: Q01DX009 (ip), vehicle: saline.
Setting [5] is: dose: 25.0 mg/kg/injection, schedule: Q01DX009 (ip), vehicle: saline.
Where [6] appears, read: dose: 50.0 mg/kg/injection, schedule: Q01DX009 (ip), vehicle: saline.
Where [7] appears, read: dose: 25.0 mg/kg/injection, schedule: Q01DX009 (ip), vehicle: saline with Tween-80.
Setting [8] is: dose: 50.0 mg/kg/injection, schedule: Q01DX009 (ip), vehicle: saline with Tween-80.
Setting [9] is: dose: 100.0 mg/kg/injection, schedule: Q01DX009 (ip), vehicle: saline with Tween-80.
The mark [10] stands for this setting: dose: 200.0 mg/kg/injection, schedule: Q01DX009 (ip), vehicle: saline with Tween-80.
The mark [11] stands for this setting: dose: 12.5 mg/kg/injection, schedule: Q01DX009 (ip), vehicle: Klucel (hydroxypropylcellulose) (HPC).
Where [12] appears, read: dose: 25.0 mg/kg/injection, schedule: Q01DX009 (ip), vehicle: Klucel (hydroxypropylcellulose) (HPC).
Setting [13] is: dose: 100.0 mg/kg/injection, schedule: Q01DX009 (ip), vehicle: saline.
The mark [14] stands for this setting: dose: 60.0 mg/kg/injection, schedule: Q01DX005 (ip), vehicle: Klucel (hydroxypropylcellulose) (HPC).
Setting [15] is: dose: 120.0 mg/kg/injection, schedule: Q01DX005 (ip), vehicle: Klucel (hydroxypropylcellulose) (HPC).
Setting [16] is: dose: 240.0 mg/kg/injection, schedule: Q01DX005 (ip), vehicle: Klucel (hydroxypropylcellulose) (HPC).
The mark [17] stands for this setting: dose: 50.0 mg/kg/injection, schedule: Q01DX005 (ip), vehicle: Klucel (hydroxypropylcellulose) (HPC).
Where [18] appears, read: dose: 100.0 mg/kg/injection, schedule: Q01DX005 (ip), vehicle: Klucel (hydroxypropylcellulose) (HPC).
Setting [19] is: dose: 200.0 mg/kg/injection, schedule: Q01DX005 (ip), vehicle: Klucel (hydroxypropylcellulose) (HPC).

“And” between values parts separate entries of the source, which are not always exact repeats. Identical values can stand only once. Inconclusive results and toxic doses are left out.

On to `CSC(=NC(=O)c1c(Cl)cccc1Cl)SC`, for which the T/C is, setting by setting: under setting [1], 102 % of control; under setting [2], 100 % of control; under setting [3], 90 % of control.

For `Cc1cc(OC(=O)Nc2ccc(C)c([N+](=O)[O-])c2)c(Br)cc1Cl`, the T/C reads like this: under setting [4], 100 % of control; under setting [5], 93 % of control; (dose: 50.0 mg/kg/injection, schedule: Q01DX009 (ip), vehicle: saline + alcohol) 96 % of control; under setting [6], 100 % of control; (dose: 100.0 mg/kg/injection, schedule: Q01DX009 (ip), vehicle: saline + alcohol) 99 % of control.

Take `c1ccc(CN2C3Oc4ccccc4C2Oc2ccccc23)cc1`: the T/C (dose: 12.5 mg/kg/injection, schedule: Q01DX009 (ip), vehicle: saline with Tween-80) was 100 % of control; the T/C under setting [7] is 100 % of control; the T/C under setting [8] is 91 % of control.

Regarding `O=C1CCC2(ON=C(c3ccccc3)C2Br)O1` (stereo not given), the T/C under setting [8] was 116 % of control, the T/C under setting [9] is 108 % of control and the T/C under setting [10] was 116 % of control.

Regarding `COc1ccc(CSC(=S)Nc2ccc(C)c(Cl)c2)cc1`, the T/C was 106 % of control (dose: 50.0 mg/kg/injection, schedule: Q01DX009 (ip), vehicle: suspension in saline); 102 % of control (dose: 100.0 mg/kg/injection, schedule: Q01DX009 (ip), vehicle: suspension in saline); 111 % of control (dose: 200.0 mg/kg/injection, schedule: Q01DX009 (ip), vehicle: suspension in saline).

As for `O=C(CC(=O)c1ccc(Cl)s1)C(=O)NC1C2CC3CC(C2)CC1C3` (stereo not given), the T/C runs as follows: (dose: 7.5 mg/kg/injection, schedule: Q01DX005 (ip), vehicle: saline with Tween-80) 100 % of control; (dose: 15.0 mg/kg/injection, schedule: Q01DX005 (ip), vehicle: saline with Tween-80) 102 % of control; (dose: 30.0 mg/kg/injection, schedule: Q01DX005 (ip), vehicle: saline with Tween-80) 100 % of control; under setting [1], 94 % of control and 95 % of control.

For `COc1ccc2c(c1)CN(C)c1ccc(OC)cc1CN2C`, the T/C was 100 % of control under setting [1], 104 % of control under setting [2] and 100 % of control under setting [3].

Regarding `C#CCN(C)/N=N/c1nc[nH]c1C(N)=O`, the T/C reads like this: under setting [11], 115 % of control; under setting [12], 122 % of control; (dose: 50.0 mg/kg/injection, schedule: Q01DX009 (ip), vehicle: Klucel (hydroxypropylcellulose) (HPC)) 120 % of control; (dose: 100.0 mg/kg/injection, schedule: Q01DX009 (ip), vehicle: Klucel (hydroxypropylcellulose) (HPC)) 112 % of control.

As for `CCCCCCCC/C=C\CCCCCCCCSC1=CC(=O)C(OC)=C(OC)C1=O`, the T/C is 98 % of control (dose: 3.13 mg/kg/injection, schedule: Q01DX009 (ip), vehicle: Klucel (hydroxypropylcellulose) (HPC)); 96 % of control (dose: 6.25 mg/kg/injection, schedule: Q01DX009 (ip), vehicle: Klucel (hydroxypropylcellulose) (HPC)); 100 % of control under setting [11]; 103 % of control under setting [12].

On to `Clc1cc(Cl)cc(N=Cc2cccs2)c1`, for which the T/C under setting [6] was 100 % of control; the T/C under setting [13] is 100 % of control; the T/C (dose: 200.0 mg/kg/injection, schedule: Q01DX009 (ip), vehicle: saline) is 98 % of control.

Consider `COc1cc(C(Nc2ccccn2)c2cc3c(cc2OC(C)=O)OCO3)cc(OC)c1OC` (stereo not given), for which the T/C was 104 % of control under setting [1], 97 % of control under setting [2] and 88 % of control under setting [3].

Consider `C=C1CC(C2OCOC3COCOC32)OC1=O` (stereo not given), for which the T/C runs as follows: under setting [14], 104 % of control; under setting [15], 111 % of control.

As for `C=CC(=O)CC1(C(=O)OC)NC(=S)NC(=O)C1C#N` (stereo not given), the T/C was 102 % of control under setting [14], 102 % of control under setting [15] and 98 % of control under setting [16].

As to `C=CCCCCCCCCCCCCCC1=NCC[N+]1(CCO)CC(O)COc1cc(Cl)c(Cl)c(Cl)c1` (stereo not given), the T/C under setting [4] is 102 % of control; the T/C under setting [5] was 106 % of control; the T/C under setting [6] was 105 % of control and 108 % of control; the T/C under setting [13] is 90 % of control.

With `COc1cc2c(cc1C/C=C/c1ccccc1)OCO2`, the T/C by setting is: (dose: 50.0 mg/kg/injection, schedule: Q01DX005 (ip), vehicle: saline with Tween-80) 105 % of control; (dose: 100.0 mg/kg/injection, schedule: Q01DX005 (ip), vehicle: saline with Tween-80) 109 % of control; (dose: 200.0 mg/kg/injection, schedule: Q01DX005 (ip), vehicle: saline with Tween-80) 112 % of control.

As for `Cc1c2noc1CCCCCCCCCCC2`, the T/C is 104 % of control under setting [17], 110 % of control under setting [18] and 102 % of control under setting [19].

With `COc1cc2c(cc1OC)C(Cc1ccc3cc(OC)c(OC)cc3c1)=NCC2`, the T/C is, setting by setting: under setting [9], 90 % of control; under setting [10], 90 % of control; (dose: 400.0 mg/kg/injection, schedule: Q01DX009 (ip), vehicle: saline with Tween-80) 100 % of control.

`[Fe].[c-]1[c-][c-][c-](CNc2ncnc3nc[nH]c23)[c-]1.[c-]1[c-][c-][cH-][c-]1`: the T/C is, setting by setting: (dose: 12.5 mg/kg/injection, schedule: Q01DX005 (ip), vehicle: Klucel (hydroxypropylcellulose) (HPC)) 97 % of control; (dose: 25.0 mg/kg/injection, schedule: Q01DX005 (ip), vehicle: Klucel (hydroxypropylcellulose) (HPC)) 100 % of control; under setting [17], 86 % of control; under setting [18], 91 % of control.

On to `CN(C)CCC(=O)c1ccc2c(c1)OCO2`, for which the T/C was 100 % of control (dose: 60.0 mg/kg/injection, schedule: Q01DX005 (ip), vehicle: saline) and 92 % of control (dose: 120.0 mg/kg/injection, schedule: Q01DX005 (ip), vehicle: saline).

Regarding `O=C1CSC(c2ccsc2)N1c1nncs1` (stereo not given), the T/C reads like this: under setting [14], 101 % of control; under setting [15], 100 % of control; under setting [16], 108 % of control.

Regarding `CCC(=O)n1c(Cl)c(/C=N/NC(N)=S)c2ccccc21`, the T/C is 95 % of control (dose: 100.0 mg/kg/injection, schedule: Q01DX001 (ip), vehicle: Klucel (hydroxypropylcellulose) (HPC)); 100 % of control (dose: 200.0 mg/kg/injection, schedule: Q01DX001 (ip), vehicle: Klucel (hydroxypropylcellulose) (HPC)); 93 % of control (dose: 400.0 mg/kg/injection, schedule: Q01DX001 (ip), vehicle: Klucel (hydroxypropylcellulose) (HPC)).

`CC1CP(c2ccccc2)(c2ccccc2)(c2ccccc2)OC1(C(=O)c1ccccc1)c1ccccc1` (stereo not given): the T/C is, setting by setting: (dose: 6.25 mg/kg/injection, schedule: Q01DX009 (ip), vehicle: saline with Tween-80) 100 % of control; under setting [7], 88 % of control.

On to `CC([NH-])C[NH-].O=[N+]([O-])O.O=[N+]([O-])O.[Pt+2]` (stereo not given), for which the T/C is 153 % of control (dose: 6.25 mg/kg/injection, schedule: Q04DX002 (ip), vehicle: saline); 100 % of control and 98 % of control (dose: 12.5 mg/kg/injection, schedule: Q04DX002 (ip), vehicle: saline).

In the case of `C[n+]1c(/C=C/c2ccc(N3CCCC3)cc2)sc2ccccc21`, the T/C (dose: 0.79 mg/kg/injection, schedule: Q01DX009 (ip), vehicle: saline) was 105 % of control; the T/C (dose: 1.56 mg/kg/injection, schedule: Q01DX009 (ip), vehicle: saline) was 95 % of control; the T/C (dose: 3.12 mg/kg/injection, schedule: Q01DX009 (ip), vehicle: saline) is 106 % of control and 117 % of control; the T/C (dose: 6.25 mg/kg/injection, schedule: Q01DX009 (ip), vehicle: saline) is 108 % of control.

With `Nc1nnc(SCCCCCCCCCCSc2nnc(N)s2)s1`, the T/C is, setting by setting: under setting [17], 95 % of control; under setting [18], 91 % of control; under setting [19], 89 % of control.

`COC(=O)c1cc(-c2ccc(N)cc2)c2c(=O)n(-c3ccccc3)[nH]c2n1`: the T/C under setting [1] is 100 % of control, the T/C under setting [2] was 91 % of control and the T/C under setting [3] is 87 % of control.

For `CCCC(O)C(NC(=O)c1ccccc1)C(=O)O` (stereo not given), the T/C runs as follows: under setting [8], 92 % of control; under setting [9], 98 % of control and 95 % of control; under setting [10], 95 % of control and 98 % of control.

The record behind these values is PubChem BioAssay AID330 (DTP/NCI, 2004).
